Measurements taken from patent US9896445B2, “Heterocyclic inhibitors of ERK1 and ERK2 and their use in the treatment of cancer” (Asana Biosciences, LLC, priority 2015, dated 2018).

Tests used:
[1] = target: T1, ERK2 (Homo sapiens, UniProt P28482); test: ERK2 HTRF (biochemical) assay; details: HTRF
T1 construct: purchased Jubilant Biosys
Procedure: (§1) ERK1 and ERK2 HTRF (Biochemical) Assays
These assays employed a homogeneous time resolved fluorescence (HTRF) technique. The compounds were serially diluted by half-log with concentrations ranging from 0.0005 to 10 uM in the assay buffer (50 mM Tris pH=7.5, 1 mM EGTA, 2 mM DTT, 10 mM MgCl2, 0.1% Tween-20) and 20 uL of substrate-ATP mix [1 uM Biotin-LC-Myelin Basic Protein (MBP) derivatized Peptide (Anaspec)-24 uM ATP (Sigma)] was added to each well of the assay plate. Then 10 uL of enzyme mix [25 nM ERK1 or ERK2 (Jubilant Biosys) in assay buffer] was added to each well. The plate was incubated at room temperature for 60 min with shaking. The HTRF mix [625 nM LANCE® Ultra Europium-anti-phospho-MBP (Perkin Elmer) and 2 nM Phycolink® Streptavidin-Allophycocyanin (SA-APC) (Prozyme) in HTRF buffer (50 mM Tris-HCl pH=7.5, 100 mM NaCl, 0.1% BSA, 0.05% Tween20, 0.5 mM EDTA)] was prepared and 75 uL of this mix was added to the HTRF plate. After incubation for 60 min at room temperature, 10 uL of the reaction mixture was transferred to the HTRF assay plate and incubated for 45 min at room temperature with shaking. Plate was read using Pherastar in HTRF mode (excitation 337 nm, emission 665 & 620 nm). The IC50 values (half maximal inhibitory concentration values) were subsequently determined using a sigmoidal dose-response curve (variable slope) in GraphPad Prism® 5 software.

[2] = target: T2, ERK1 (Homo sapiens, UniProt P27361); test: ERK1 HTRF (biochemical) assay; details: HTRF
T2 construct: purchased Jubilant Biosys
T2 sequence (P27361 whole entry): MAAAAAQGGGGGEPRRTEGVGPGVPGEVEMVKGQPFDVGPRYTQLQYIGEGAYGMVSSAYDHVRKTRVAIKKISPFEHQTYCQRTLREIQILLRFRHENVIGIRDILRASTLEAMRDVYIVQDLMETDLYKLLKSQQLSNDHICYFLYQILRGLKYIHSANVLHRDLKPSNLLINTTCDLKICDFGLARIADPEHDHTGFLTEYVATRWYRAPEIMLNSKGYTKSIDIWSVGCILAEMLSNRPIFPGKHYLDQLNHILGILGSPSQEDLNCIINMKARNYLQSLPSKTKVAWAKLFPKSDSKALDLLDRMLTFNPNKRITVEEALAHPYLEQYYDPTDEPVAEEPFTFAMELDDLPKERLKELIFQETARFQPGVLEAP
Procedure: as §1
These assays employed a homogeneous time resolved fluorescence (HTRF) technique. […] The plate was incubated at room temperature for 60 min with shaking. […] The IC50 values (half maximal inhibitory concentration values) were subsequently determined using a sigmoidal dose-response curve (variable slope) in GraphPad Prism® 5 software.

T1 sequence (P28482 whole entry): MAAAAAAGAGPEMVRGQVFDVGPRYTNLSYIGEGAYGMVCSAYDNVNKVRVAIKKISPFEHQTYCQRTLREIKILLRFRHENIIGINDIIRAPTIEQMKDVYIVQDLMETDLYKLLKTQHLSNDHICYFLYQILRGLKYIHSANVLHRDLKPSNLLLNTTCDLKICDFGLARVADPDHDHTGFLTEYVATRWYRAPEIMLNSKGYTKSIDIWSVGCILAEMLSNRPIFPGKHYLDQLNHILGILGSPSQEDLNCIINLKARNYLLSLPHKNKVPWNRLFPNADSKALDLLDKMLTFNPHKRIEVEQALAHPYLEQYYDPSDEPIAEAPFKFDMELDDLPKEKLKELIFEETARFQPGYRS

| Structure (SMILES) | IC50 [1] | IC50 [2] |
| --- | --- | --- |
| Cc1cnc(Nc2ccc3c(c2)OCO3)nc1-n1ccc(C(=O)N[C@H](CO)c2ccc(F)c(Cl)c2)c1 [Compound 87] | ≤ 0.05 µM | < 0.05 µM |
| Cc1cnc(NC(C)c2ccccc2)nc1-n1ccc(C(=O)NC(CO)c2ccccc2)c1 (centres unmarked) [Compound 117, N-(2-hydroxy-1-phenylethyl)-1-(5-methyl-2-((1-phenylethyl)amino)pyrimidin-4-yl)-1H-pyrrole-3-carboxamide] | 0.05 to 0.1 µM | 0.1 to 0.5 µM |
| Cc1cnc(Nc2ccc3occc3c2)nc1-n1ccc(C(=O)NC(CO)c2ccccc2)c1 (centres unmarked) [Compound 65, 1-(2-(benzofuran-5-ylamino)-5-methylpyrimidin-4-yl)-N-(2-hydroxy-1-phenylethyl)-1H-pyrrole-3-carboxamide] | ≤ 0.05 µM |  |
| Cc1cnc(Nc2ccc(F)c(C(=O)N(C)C)c2)nc1-n1ccc(C(=O)NC(CO)c2cccc(Cl)c2)c1 (centres unmarked) [Compound 194, N-(1-(3-chloro-phenyl)-2-hydroxyethyl)-1-(2-((3-(dimethyl-carbamoyl)-4-fluorophenyl)amino)-5-methyl-pyrimidin-4-yl)-1H-pyrrole-3-carboxamide] | ≤ 0.05 µM | < 0.05 µM |
| Cc1cnc(NC2CCOC(C)C2)nc1-n1cnc(C(=O)N[C@H](CO)c2cccc(Cl)c2)c1 (stereo partly drawn) [Compound 251, N-((S)-1-(3-chlorophenyl)-2-hydroxyethyl)-1-(5-methyl-2-((2-methyltetrahydro-2H-pyran-4-yl)amino)pyrimidin-4-yl)-1H-imidazole-4-carboxamide] | ≤ 0.05 µM | < 0.05 µM |
| Cc1cnc(NC2CCOCC2)nc1-n1cnc(C(=O)NCc2ccccc2C(C)(C)O)c1 [Example 293, N-(2-(2-hydroxy-propan-2-yl)benzyl)-1-(5-methyl-2-((tetrahydro-2H-pyran-4-yl)amino)-pyrimidin-4-yl)-1H-imidazole-4-carboxamide] | ≤ 0.05 µM | < 0.05 µM |
| O=C(NCc1cccc(Cl)c1)Nc1cnn(-c2ccnc(Nc3ccccc3Cl)n2)c1 [Compound 9, 1-(3-chlorobenzyl)-3-(1-(2-((2-chloro-phenyl)amino)pyrimidin-4-yl)-1H-pyrazol-4-yl)urea] | > 2.5 µM |  |
| Cc1cnc(NC2CCOCC2)nc1-n1cnc(C(=O)NC(CO)c2cccc(C(C)(C)C)c2)c1 (centres unmarked) [Example 258, N-(1-(3-(tert-butyl)phenyl)-2-hydroxyethyl)-1-(5-methyl-2-((tetrahydro-2H-pyran-4-yl)amino)-pyrimidin-4-yl)-1H-imidazole-4-carboxamide] | ≤ 0.05 µM | < 0.05 µM |
| Cc1cnc(Nc2ccc(F)cc2)cc1-n1cnc(C(=O)NC(CO)c2ccccc2)c1 (centres unmarked) [Compound 222, 1-(2-((4-fluorophenyl)amino)-5-methylpyridin-4-yl)-N-(2-hydroxy-1-phenylethyl)-1H-imidazole-4-carboxamide] | 0.05 to 0.1 µM | 0.1 to 0.5 µM |
| Cc1cnc(Nc2cccc3c2OC(F)(F)O3)nc1-n1ccc(C(=O)NC(CO)c2cccc(Cl)c2)c1 (centres unmarked) [Compound 160, N-(1-(3-chloro-phenyl)-2-hydroxy-ethyl)-1-(2-((2,2-difluoro-benzo[d][1,3]dioxol-4-yl)amino)-5-methylpyrimidin-4-yl)-1H-pyrrole-3-carboxamide] | ≤ 0.05 µM | < 0.05 µM |
| O=C(N[C@H](CO)c1cccc(Cl)c1)c1cn(-c2ccnc(Nc3ccccc3)c2)cn1 [Compound 72, (S)-N-(1-(3-chlorophenyl)-2-hydroxyethyl)-1-(2-(phenylamino)pyridin-4-yl)-1H-imidazole-4-carboxamide] | ≤ 0.05 µM | < 0.05 µM |
| COc1cc(N2CCN(C(C)=O)CC2)ccc1Nc1nccc(-n2cc(NC(=O)N[C@H](CO)c3cccc(Cl)c3)cn2)n1 [Compound 15, (S)-1-(1-(2-((4-(4-acetylpiperazin-1-yl)-2-methoxy-phenyl)amino)pyrimidin-4-yl)-1H-pyrazol-4-yl)-3-(1-(3-chlorophenyl)-2-hydroxyethyl)urea] |  | 0.05 to 0.1 µM |
| Cc1cnc(Nc2ccc(F)cc2Cl)nc1-n1ccc(C(=O)N[C@@H](CN(C)C)c2ccccc2)c1 [Compound 97, (R)-1-(2-((2-chloro-4-fluorophenyl)amino)-5-methy-lpyrimidin-4-yl)-N-(2-(dimethylamino)-1-phenylethyl)-1H-pyrrole-3-carboxamide] | 0.1 to 0.5 µM |  |
| NCC(Cc1ccccc1)NC(=O)c1ccn(-c2ccnc(Nc3ccc(F)cc3)c2)c1 (centres unmarked) [Compound 119, N-(1-amino-3-phenylpropan-2-yl)-1-(2-((4-fluoro-phenyl)amino)pyridin-4-yl)-1H-pyrrole-3-carboxamide] | 0.1 to 0.5 µM |  |
| O=C(NC(CO)c1cccc(Cl)c1)c1cnn(-c2ccnc(Nc3ccccc3)n2)c1 (centres unmarked) [Compound 52, N-(1-(3-chloro-phenyl)-2-hydroxy-ethyl)-1-(2-(phenyl-amino)pyrimidin-4-yl)-1H-pyrazole-4-carboxamide] | 0.1 to 0.5 µM |  |
| O=C(NC(CO)c1ccccc1)c1ccn(-c2nc(Nc3ccc(F)cc3Cl)ncc2C(F)(F)F)c1 (centres unmarked) [Compound 122, 1-(2-((2-chloro-4-fluorophenyl)amino)-5-(trifluoro-methyl)pyrimidin-4-yl)-N-(2-hydroxy-1-phenylethyl)-1H-pyrrole-3-carboxamide] | > 2.5 µM |  |
| Cc1cnc(NC2CCOCC2)nc1-n1ccc(C(=O)NC(CO)c2ccccc2)c1 (centres unmarked) [Compound 120, N-(2-hydroxy-1-phenylethyl)-1-(5-methyl-2-((tetrahydro-2H-pyran-4-yl)amino)pyrimidin-4-yl)-1H-pyrrole-3-carboxamide] | 0.1 to 0.5 µM |  |
| Cc1cnc(Nc2ccc3ocnc3c2)nc1-n1ccc(C(=O)NC(CO)c2ccccc2)c1 (centres unmarked) [Compound 104] | 0.1 to 0.5 µM |  |

The remaining lines, values ahead:

| IC50 [1] | IC50 [2] | Structure (SMILES) |
| --- | --- | --- |
| 0.1 to 0.5 µM |  | Cc1cnc(Nc2ccc(F)cc2Cl)nc1-n1cc(NC(=O)N[C@@H](CO)c2cccc(Cl)c2)cn1 [Compound 56, (R)-1-(1-(2-((2-chloro-4-fluoro-phenyl)amino)-5-methylpyrimidin-4-yl)-1H-pyrazol-4-yl)-3-(1-(3-chloro-phenyl)-2-hydroxy-ethyl)urea] |
| 0.05 to 0.1 µM | < 0.05 µM | Cc1cnc(Nc2ccccc2Cl)nc1-n1cc(NC(=O)N[C@H](CO)c2cccc(Cl)c2)cn1 [Compound 2] |
| ≤ 0.05 µM | < 0.05 µM | COc1cc(F)ccc1Nc1ncc(C)c(-n2ccc(C(=O)NC(CO)c3cccc(Cl)c3)c2)n1 (centres unmarked) [Compound 142, N-(1-(3-chloro-phenyl)-2-hydroxy-ethyl)-1-(2-((4-fluoro-2-methoxy-phenyl)amino)-5-methylpyrimidin-4-yl)-1H-pyrrole-3-carboxamide] |
| ≤ 0.05 µM | 0.1 to 0.5 µM | Cc1cnc(Nc2ccc(F)cc2Cl)nc1-n1cc(NC(=O)NC(CO)c2cccc(Cl)c2)cn1 (centres unmarked) [Compound 36, 1-(1-(2-((2-chloro-4-fluorophenyl)-amino)-5-methyl-pyrimidin-4-yl)-1H-pyrazol-4-yl)-3-(1-(3-chlorophenyl)-2-hydroxyethyl)urea] |
|  | < 0.05 µM | Cc1cnc(Nc2ccc(F)cc2Cl)nc1-n1cc(NC(=O)N[C@H](CO)c2cccc(Cl)c2)cn1 [Compound 25, (S)-1-(1-(2-((2-chloro-4-fluoro-phenyl)amino)-5-methylpyrimidin-4-yl)-1H-pyrazol-4-yl)-3-(1-(3-chloro-phenyl)-2-hydroxy-ethyl)urea] |
|  | < 0.05 µM | Cc1cnc(Nc2ccc(F)cc2Cl)nc1-n1cc(NC(=O)N[C@H](CO)c2ccc(F)c(Cl)c2)cn1 [Compound 26, (S)-1-(1-(3-chloro-4-fluorophenyl)-2-hydroxyethyl)-3-(1-(2-((2-chloro-4-fluorophenyl)amino)-5-methyl-pyrimidin-4-yl)-1H-pyrazol-4-yl)urea] |
| > 2.5 µM |  | C[C@@H](NC(=O)Nc1cnn(-c2ccnc(Nc3ccccc3Cl)n2)c1)c1cccc(Cl)c1 [Compound 10] |
|  | 0.1 to 0.5 µM | CC(NC(=O)Nc1cnn(-c2ccnc(Nc3ccccc3Cl)n2)c1)c1cccc(Cl)c1 (centres unmarked) [Compound 5, 1-(1-(2-((2-chlorophenyl)amino)pyrimidin-4-yl)-1H-pyrazol-4-yl)-3-(1-(3-chloro-phenyl)ethyl)urea] |
| 0.5 to 2.5 µM |  | Cc1cnc(Nc2ccccc2Cl)nc1-n1cc(NC(=O)N[C@@H](CO)c2cccc(Cl)c2)cn1 [Compound 61, (R)-1-(1-(3-chlorophenyl)-2-hydroxyethyl)-3-(1-(2-((2-chloro-phenyl)amino)-5-methylpyrimidin-4-yl)-1H-pyrazol-4-yl)urea] |
| > 2.5 µM |  | Cc1c(NC(=O)N[C@H](CO)c2cccc(Cl)c2)cnn1-c1ccnc(Nc2ccccc2Cl)n1 [Compound 11, (S)-1-(1-(3-chlorophenyl)-2-hydroxyethyl)-3-(1-(2-((2-chloro-phenyl)amino)pyrimidin-4-yl)-5-methyl-1H-pyrazol-4-yl)urea] |
| ≤ 0.05 µM |  | Cc1cnc(Nc2ccc3c(c2)OCO3)nc1-n1cc(C(=O)N[C@H](CO)c2cccc(Cl)c2)cn1 [Compound 50, (S)-1-(2-(benzo[d][1,3]dioxol-5-ylamino)-5-methylpyrimidin-4-yl)-N-(1-(3-chloro-phenyl)-2-hydroxy-ethyl)-1H-pyrazole-4-carboxamide] |
